US5518735A, “Meta-substituted phenylalanine derivatives” (priority 1990, dated 1996)

Legend:
[1] = biological target: T1, plasmin (Homo sapiens, UniProt P00747); assay: Inhibition of plasmin (Ki); assay type: biochemical; settings: Table 26
T1 construct: trypsin and the related enzymes thrombin, plasmin, factor Xa, tPA

[2] = biological target: tPA (Homo sapiens, UniProt P00750); assay: Inhibition of tPA (Ki); assay type: biochemical; settings: Table 26
[3] = biological target: T2, factor XIIa (Homo sapiens, UniProt P00748); assay: Inhibition of factor XIIa (Ki); assay type: biochemical; settings: Table 26
T2 construct: glandular kallikrein, factor XIIa and plasma kallikrein
T2 sequence (P00748 373-615 limits assumed): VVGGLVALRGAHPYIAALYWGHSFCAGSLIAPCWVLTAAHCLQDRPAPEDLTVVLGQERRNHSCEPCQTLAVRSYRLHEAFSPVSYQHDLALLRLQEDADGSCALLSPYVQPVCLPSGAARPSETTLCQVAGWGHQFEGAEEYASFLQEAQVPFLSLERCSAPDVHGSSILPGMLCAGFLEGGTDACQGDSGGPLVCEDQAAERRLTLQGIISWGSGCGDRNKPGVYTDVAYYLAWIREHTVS

[4] = system: human plasma; settings: in vitro, FIG. 4
Protocol: Various coagulation tests were used in vitro to determine the efficacy of the inhibitors towards the thrombin-induced coagulation of its natural substrate fibrinogen. For that purpose, the thrombin time (TT), the activated partial thromboplastin time (aPTT) and the prothrombin time (PT, Quick value) were determined in human plasma.

[5] = biological target: thrombin (Bos taurus, UniProt P00735); assay: Inhibition of thrombin (dissociation constant Ki); assay type: biochemical
[6] = biological target: T3, plasma kallikrein (Homo sapiens, UniProt P03952); assay: Inhibition of plasma kallikrein (Ki); assay type: biochemical; settings: Table 26
T3 construct: glandular kallikrein, factor XIIa and plasma kallikrein

[7] = biological target: factor Xa (Bos taurus, UniProt P00743); assay: Inhibition of factor Xa (dissociation constant Ki); assay type: biochemical; settings: Tables 19-25; read-out: Ki, Factor Xa
[8] = Plasma concentration in rats after oral administration (HPLC); settings: rat, plasma, po, 100 mg/kg
Protocol: (§1) For the pharmacokinetic characterization, the plasma concentration of selected derivatives was determined in rats after intravenous (i.v.), subcutaneous (s.c.) and peroral (p.o.) application according to the following three-step procedure:
(§2) 1. A physiological NaCl solution of the substance to be tested was submitted to high pressure liquid chromatography (HPLC) in order to determine its characteristic substance-specific retention time with the chosen test conditions.
(§3) 2. The substance to be tested was diluted in vitro in rat plasma. This solution was also submitted to HPLC to see whether the characteristic peak of the substance once again appeared at the substance-specific retention time.
(§4) 3. […] Blood samples were taken at time intervals of 15 minutes, from which plasma samples were prepared by centrifugation; those samples were also submitted to HPLC to see whether the characteristic peak of the substance appeared again at the substance-specific retention time.

[9] = in vivo; settings: mouse
[10] = Plasma concentration in rats after subcutaneous administration (HPLC); settings: rat
[11] = biological target: glandular kallikrein (Sus scrofa, UniProt P00752); assay: Inhibition of glandular kallikrein (Ki); assay type: biochemical; settings: Table 26; read-out: Ki, Gland. Kallikrein
[12] = Plasma concentration in rats after intravenous administration (HPLC); settings: for Concentration in plasma: i.v. 1 mg/kg
Protocol: as §1, §2, §3, §4

[13] = biological target: T4, trypsin (Bos taurus, UniProt P00760); assay: Inhibition of trypsin (Ki); assay type: biochemical; settings: Table 26
T4 sequence (P00760 24-246): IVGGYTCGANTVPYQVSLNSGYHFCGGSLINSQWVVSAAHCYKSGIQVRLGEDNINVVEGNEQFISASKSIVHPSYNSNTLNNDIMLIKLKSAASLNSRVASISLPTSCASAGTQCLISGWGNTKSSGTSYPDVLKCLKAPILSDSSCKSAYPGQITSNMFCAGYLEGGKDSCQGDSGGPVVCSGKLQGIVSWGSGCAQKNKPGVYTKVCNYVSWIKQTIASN

T3 sequence (P03952 391-638 limits assumed, species assumed): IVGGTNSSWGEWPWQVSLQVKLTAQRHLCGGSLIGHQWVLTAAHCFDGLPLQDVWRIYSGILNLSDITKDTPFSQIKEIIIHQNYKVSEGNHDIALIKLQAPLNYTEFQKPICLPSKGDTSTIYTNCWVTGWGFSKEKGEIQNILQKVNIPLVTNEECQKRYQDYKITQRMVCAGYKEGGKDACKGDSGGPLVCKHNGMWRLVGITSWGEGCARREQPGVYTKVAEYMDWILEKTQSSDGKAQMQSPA
T3 sequence (P03952 20-390 partner limits assumed, species assumed): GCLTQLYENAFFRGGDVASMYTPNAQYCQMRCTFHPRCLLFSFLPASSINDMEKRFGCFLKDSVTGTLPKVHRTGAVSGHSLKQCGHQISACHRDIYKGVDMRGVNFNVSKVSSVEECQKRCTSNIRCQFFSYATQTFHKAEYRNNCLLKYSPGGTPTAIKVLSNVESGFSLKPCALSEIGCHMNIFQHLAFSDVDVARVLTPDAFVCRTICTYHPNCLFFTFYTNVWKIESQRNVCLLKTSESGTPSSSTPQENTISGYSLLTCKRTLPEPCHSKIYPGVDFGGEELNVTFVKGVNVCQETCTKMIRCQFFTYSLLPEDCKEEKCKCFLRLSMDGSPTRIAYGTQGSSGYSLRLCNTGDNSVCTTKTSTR
T1 sequence (P00747 581-810 limits assumed): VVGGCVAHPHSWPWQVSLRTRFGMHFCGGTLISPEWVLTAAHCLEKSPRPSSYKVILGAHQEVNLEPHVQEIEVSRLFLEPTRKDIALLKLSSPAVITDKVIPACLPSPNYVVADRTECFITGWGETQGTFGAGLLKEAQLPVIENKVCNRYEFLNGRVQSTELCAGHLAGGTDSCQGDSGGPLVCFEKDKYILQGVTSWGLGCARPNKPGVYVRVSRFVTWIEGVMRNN
T1 sequence (P00747 97-580 partner limits assumed): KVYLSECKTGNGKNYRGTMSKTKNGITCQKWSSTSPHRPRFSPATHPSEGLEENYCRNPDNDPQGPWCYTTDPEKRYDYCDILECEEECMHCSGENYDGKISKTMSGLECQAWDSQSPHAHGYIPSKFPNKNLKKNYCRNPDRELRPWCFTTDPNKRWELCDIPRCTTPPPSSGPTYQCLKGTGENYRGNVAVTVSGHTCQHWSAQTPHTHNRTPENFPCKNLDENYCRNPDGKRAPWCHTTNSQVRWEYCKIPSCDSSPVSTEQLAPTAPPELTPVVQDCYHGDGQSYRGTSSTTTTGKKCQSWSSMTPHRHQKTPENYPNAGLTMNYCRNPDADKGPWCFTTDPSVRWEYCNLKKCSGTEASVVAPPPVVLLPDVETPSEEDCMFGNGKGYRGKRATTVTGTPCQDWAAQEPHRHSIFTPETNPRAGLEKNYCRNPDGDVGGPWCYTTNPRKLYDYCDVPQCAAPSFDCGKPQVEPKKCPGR
Chain of glandular kallikrein (P00752 8-246): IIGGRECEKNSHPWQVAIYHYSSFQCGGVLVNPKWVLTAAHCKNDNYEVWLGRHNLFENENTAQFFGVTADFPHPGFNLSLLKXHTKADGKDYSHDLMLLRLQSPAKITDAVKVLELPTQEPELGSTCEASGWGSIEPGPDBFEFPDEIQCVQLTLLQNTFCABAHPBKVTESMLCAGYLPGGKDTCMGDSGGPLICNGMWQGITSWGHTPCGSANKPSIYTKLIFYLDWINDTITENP
Chain of factor Xa (P00743 234-492 limits assumed): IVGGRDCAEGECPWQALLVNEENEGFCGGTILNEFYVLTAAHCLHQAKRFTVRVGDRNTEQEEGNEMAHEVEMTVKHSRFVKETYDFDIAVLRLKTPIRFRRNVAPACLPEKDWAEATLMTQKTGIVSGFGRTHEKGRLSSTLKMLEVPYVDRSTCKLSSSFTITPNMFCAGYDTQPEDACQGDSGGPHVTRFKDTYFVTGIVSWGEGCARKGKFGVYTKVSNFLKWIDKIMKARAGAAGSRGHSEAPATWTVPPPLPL
Chain of factor Xa (P00743 41-180 partner limits assumed): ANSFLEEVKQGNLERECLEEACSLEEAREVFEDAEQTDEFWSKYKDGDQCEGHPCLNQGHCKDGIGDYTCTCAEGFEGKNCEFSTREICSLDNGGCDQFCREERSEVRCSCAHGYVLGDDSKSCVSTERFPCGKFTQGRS
Chain of tPA (P00750 36-562): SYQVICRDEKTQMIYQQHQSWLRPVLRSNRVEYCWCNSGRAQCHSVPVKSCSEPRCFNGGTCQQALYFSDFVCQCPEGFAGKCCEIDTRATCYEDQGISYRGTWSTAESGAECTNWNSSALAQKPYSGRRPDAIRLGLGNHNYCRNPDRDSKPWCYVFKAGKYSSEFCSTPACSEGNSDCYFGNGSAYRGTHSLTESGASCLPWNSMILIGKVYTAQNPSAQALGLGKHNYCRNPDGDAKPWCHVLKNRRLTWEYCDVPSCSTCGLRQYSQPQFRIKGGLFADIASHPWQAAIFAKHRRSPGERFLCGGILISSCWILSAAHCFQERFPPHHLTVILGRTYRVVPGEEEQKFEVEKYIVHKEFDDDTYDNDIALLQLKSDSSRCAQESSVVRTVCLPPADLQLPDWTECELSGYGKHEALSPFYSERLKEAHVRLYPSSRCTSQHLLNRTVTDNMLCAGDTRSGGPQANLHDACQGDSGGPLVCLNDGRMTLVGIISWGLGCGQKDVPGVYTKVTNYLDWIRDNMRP

Row | SMILES | Ki [5] [µM] | Ki [6] [µM] | Ki [7] [µM] | Ki [11] [µM] | Ki [13] [µM] | Ki [1] [µM] | Ki [2] [µM] | Ki [3] [µM] | concentration at 0.25 h [8] [ng/mL] | concentration at 0.5 h [8] [ng/mL] | concentration at 1 h [8] [ng/mL] | concentration at 2 h [8] [ng/mL] | concentration at 3 h [8] [ng/mL] | concentration at 4 h [8] [ng/mL] | LD50 at 168 h ([9]; iv) [mg/kg] | LD50 at 168 h ([9]; po) [mg/kg] | concentration at 0.5 h ([10]; plasma, sc, 5 mg/kg) [ng/mL] | concentration at 0.75 h ([10]; plasma, sc, 5 mg/kg) [ng/mL] | concentration at 1 h ([10]; plasma, sc, 5 mg/kg) [ng/mL] | concentration at 1.5 h ([10]; plasma, sc, 5 mg/kg) [ng/mL] | further results
1 | CC1CCN(C(=O)C(Cc2cccc(C(=N)N)c2)NS(=O)(=O)c2ccc3ccccc3c2)CC1 (racemic) [Compound 34] |  |  |  |  |  | 4 | 460 | > 1000 |  |  |  |  |  |  |  |  |  |  |  |  | influence on prothrombin time (PT) [4]: obtained by higher inhibitor concentrations
2 | N=C(N)c1cccc(CC(NS(=O)(=O)c2ccc3ccccc3c2)C(=O)N2CCCCC2C(=O)O)c1 (racemic) [Compound 83] | 0.26 | 32 | 38 | ~1000 |  | 34 | 205 | > 1000 | 133 | 79 | 50 | 38 | 25 | 23 | 272 | > 3000 | 620 | 626 | 568 | 467 | concentration at 1.5 h [8]: 37 ng/mL; concentration at 0.25 h ([10]; plasma, sc, 5 mg/kg): 402 ng/mL; concentration at 2 h ([10]; plasma, sc, 5 mg/kg): 415 ng/mL; concentration at 3 h ([10]; plasma, sc, 5 mg/kg): 314 ng/mL; concentration at 4 h ([10]; plasma, sc, 5 mg/kg): 297 ng/mL; pharmacokinetic properties ([12]; in words, compared with NAPAP): improved pharmacokinetic properties; Concentration in plasma ([12]; rat, 120 min): 0 ng/mL; Concentration in plasma ([12]; rat, 180 min): 0 ng/mL; concentration at 2 min ([12]; rat, plasma, iv, 1 mg/kg): 1900 ng/mL; concentration at 5 min ([12]; rat, plasma, iv, 1 mg/kg): 928 ng/mL; concentration at 10 min ([12]; rat, plasma, iv, 1 mg/kg): 496 ng/mL; concentration at 0.25 h ([12]; rat, plasma, iv, 1 mg/kg): 243 ng/mL; concentration at 0.5 h ([12]; rat, plasma, iv, 1 mg/kg): 150 ng/mL; concentration at 0.75 h ([12]; rat, plasma, iv, 1 mg/kg): 115 ng/mL; concentration at 1 h ([12]; rat, plasma, iv, 1 mg/kg): 85 ng/mL; concentration at 1.5 h ([12]; rat, plasma, iv, 1 mg/kg): 45 ng/mL
3 | CC1CCN(C(=O)C(Cc2cccc(C(=N)N)c2)NS(=O)(=O)c2ccc3ccccc3c2)C(C(=O)O)C1 (racemic) [Compound 86] | 0.12 | 84 | 96 | > 1000 | 1.2 | 42 | 470 | > 1000 |  |  |  |  |  |  |  |  |  |  |  |  | 
4 | N=C(N)c1cccc(CC(NS(=O)(=O)c2ccc3ccccc3c2)C(=O)N2Cc3ccccc3CC2C(=O)O)c1 (racemic) [Compound 134, N-α-(2-Naphtylsulfonyl)-3-amidino-(D,L)-phenylalanyl-1,2,3,4-tetrahydroisoquinoline-3-carboxylic acid] | 0.018 | 1.5 | 42 | 390 |  | 0.67 | > 1000 | > 1000 | 188 | 260 | 260 | 234 | 236 | 210 | 29 | > 3000 | 35 | 72 | 79 | 92 | concentration at 0.75 h [8]: 297 ng/mL; concentration at 5 h [8]: 157 ng/mL; concentration at 6 h [8]: 86 ng/mL; concentration at 2 h ([10]; plasma, sc, 5 mg/kg): 145 ng/mL; concentration at 3 h ([10]; plasma, sc, 5 mg/kg): 285 ng/mL; concentration at 4 h ([10]; plasma, sc, 5 mg/kg): 268 ng/mL; concentration at 5 h ([10]; plasma, sc, 5 mg/kg): 248 ng/mL; Concentration in plasma ([10]; s.c. 5 mg/kg, 15 min): 0 ng/mL; Concentration in plasma ([12]; rat, 90 min): 0 ng/mL; concentration at 2 min ([12]; rat, plasma, iv, 1 mg/kg): 4440 ng/mL; concentration at 5 min ([12]; rat, plasma, iv, 1 mg/kg): 1680 ng/mL; concentration at 10 min ([12]; rat, plasma, iv, 1 mg/kg): 775 ng/mL; concentration at 0.25 h ([12]; rat, plasma, iv, 1 mg/kg): 621 ng/mL; concentration at 0.5 h ([12]; rat, plasma, iv, 1 mg/kg): 79 ng/mL; concentration at 0.75 h ([12]; rat, plasma, iv, 1 mg/kg): 78 ng/mL; concentration at 1 h ([12]; rat, plasma, iv, 1 mg/kg): 10 ng/mL

Now from value to molecule, other results behind:

Row | Ki [5] [µM] | Ki [6] [µM] | Ki [7] [µM] | Ki [11] [µM] | Ki [13] [µM] | SMILES | Ki [1] [µM] | Ki [2] [µM] | Ki [3] [µM] | concentration at 0.25 h [8] [ng/mL] | concentration at 0.5 h [8] [ng/mL] | concentration at 1 h [8] [ng/mL] | concentration at 2 h [8] [ng/mL] | concentration at 3 h [8] [ng/mL] | concentration at 4 h [8] [ng/mL] | LD50 at 168 h ([9]; iv) [mg/kg] | LD50 at 168 h ([9]; po) [mg/kg] | concentration at 0.5 h ([10]; plasma, sc, 5 mg/kg) [ng/mL] | concentration at 0.75 h ([10]; plasma, sc, 5 mg/kg) [ng/mL] | concentration at 1 h ([10]; plasma, sc, 5 mg/kg) [ng/mL] | concentration at 1.5 h ([10]; plasma, sc, 5 mg/kg) [ng/mL] | further results
5 | 3.6 | 68 | 25 | > 1000 | 46 | CC1CCN(C(=O)C(Cc2cccc(C(=N)N)c2)NC(=O)CNS(=O)(=O)c2ccc3ccccc3c2)CC1 (racemic) [Compound 156, N-α-(2-Naphthylsulfonyl)-glycyl-3-amidino-(D,L)-phenylalanine-4-methylpiperidide] | 46 | 340 | 350 |  |  |  |  |  |  |  |  |  |  |  |  | 
6 | 1.9 | > 1000 | 500 | 76 | 3.4 | CC1CCN(C(=O)C(Cc2cccc(CN)c2)NS(=O)(=O)c2ccc3ccccc3c2)CC1 (racemic) [Compound 182, N-α-(2-Naphthylsulfonyl)-3-aminomethyl-(D,L)-phenylalanyl-4-methylpiperidide] | 27 | > 1000 | < 1000 |  |  |  |  |  |  |  |  |  |  |  |  | 
